# Reference: patent US12514894B2, “Traditional Chinese medicine composition for preventing and treating diabetes, traditional Chinese medicine preparation, and use thereof” (ZHEJIANG CHINESE MEDICAL UNIVERSITY, priority 2022, dated 2026)
# Read-outs that look alike come from different tables or passages of the source.
# Assays:
# [1] = test system: Salmonella typhimurium TA97a; assay: Ames test, strain TA97a; type: cell-based; details: Test 2
# Protocol: (§1) The TCM decoction (20 mL) was sterilized at 121° C. for 20 min as a test solution. During the test, 0.1 mL of the test solution was added to each dish in the highest dose group, namely 5 μL/dish, and there was no contamination or inhibition during the pre-test. In the formal test, the test solution in the highest dose group was serially diluted 5 times with sterile purified water successively, and prepared into four test solutions with doses of 1, 0.2, 0.04, and 0.008 μL/dish, and five sample dose groups were formed. In addition, a solvent control group (sterile purified water), a blank control group (spontaneous reverse mutation group) and four positive control groups were set up. The solvents and dosages required for the preparation of positive controls sodium azide, Dexon, 2-aminofluorene and 1,8-dihydroxyanthraquinone are shown in Table 1. Sequentially, 0.1 mL each of the fresh enrichment broth of tester strain and the test solution were added into a top-layer culture medium held in a 45° C. water bath, 0.5 mL of 10% (V:V) S9 mixture was added when activated, and an equal volume of 0.2 mol/L pH7.4 phosphate buffer saline (PBS) was added without activation; after mixing well, the mixture was rapidly poured onto the bottom-layer culture medium, and the plate was rotated to uniformly distribute the top-layer culture medium on the bottom layer. […]
# [2] = test system: Salmonella typhimurium TA98; assay: Ames test, strain TA98; type: cell-based; details: Test 2
# Protocol: as §1
# [3] = test system: Salmonella typhimurium TA100; assay: Ames test, strain TA100; type: cell-based; details: Test 2
# Protocol: as §1
# [4] = test system: Salmonella typhimurium TA102; assay: Ames test, strain TA102; type: cell-based; details: Test 2
# Protocol: as §1
# [5] = test system: standard tester strains TA97a, TA98, TA100, and TA102; assay: Ames test, conclusion over the four tester strains; type: cell-based, Salmonella typhimurium; details: each of four strains, regardless of addition of S9, two duplicate tests
# Protocol: as §1
# [6] = test system: SD rats with diabetes of dampness-heat pattern; assay: Lowering of blood glucose in rats with type 2 diabetes; type: in vivo, rat
# Text: Dose Planning: Low-, medium- and high-dose groups were designed in this experiment: 10 g (crude drug)/kg, 20 g (crude drug)/kg, and 40 g (crude drug)/kg. The dose groups were given by gastric gavage for 30 consecutive days, and the control group was given an equal quantity of normal saline.
# SD rats with diabetes of dampness-heat pattern were modeled with reference to the 2014 edition of the Ideas and Methods of Clinical-mimetic Research on Integrated Animal Models of Disease and Syndrome. The specific method was as follows: Sixty specific pathogen-free (SPF) grade male Sprague-Dawley (SD) rats weighing 160-180 g were selected, 10 male SD rats were assigned to a normal control group, and the rest 50 ones were fasted but not deprived of water for 16-18 h (21:00 PM to 14:00 PM the next day); STZ was prepared into a 1.0% solution with […] citric acid buffer (pH=4.2, 4° C.), and the rats were fed with high-sugar and high-fat diet on Day 3 after tail vein injection of 10 mg kg^−1 STZ; the type 2 diabetes model was replicated by continuous high-sugar and high-fat feeding for 6-8 weeks (impaired glucose tolerance was deemed as successful modeling), and the normal control group was fed with normal diet. Later, after all rats were fed with normal animal feed and normally drank water for one week, they fasted but not deprived of water for 12 h; the tails of the rats were disinfected with alcohol, and the fasting plasma glucose of the rats was measured by tail vein blood sampling. […] After the successful modeling, the rats were given normal animal feed and access to water ad libitum for one week, so as to detect the stability of the model.
# After the successful modeling, 50 rats were divided into a model control group, a positive control group, a low-dose TCM decoction group, a medium-dose TCM decoction group, and a high-dose TCM decoction group. Ten rats in the blank control group were given access to ordinary animal feed and water ad libitum, and an equal volume of normal saline was administered daily by gastric gavage. Ten rats in the model control group were given access to ordinary animal feed and water ad libitum, and an equal volume of normal saline was administered daily by gastric gavage. Ten rats in the positive control group were given access to ordinary animal feed and water ad libitum, and 0.25 g/kg metformin was administered daily by gastric gavage. Ten rats in the low-dose TCM decoction group were given access to ordinary animal feed and water ad libitum, and 10 g (crude drug)/kg TCM decoction was administered daily by gastric gavage. Ten rats in the medium-dose TCM decoction group were given access to ordinary animal feed and water ad libitum, and 20 g (crude drug)/kg TCM decoction was administered daily by gastric gavage. Ten rats in the high-dose TCM decoction group were given access to ordinary animal feed and water ad libitum, and 40 g (crude drug)/kg TCM decoction was administered daily by gastric gavage. All rats were fed for a total of 30 days. Rat body weight, fasting plasma glucose, and insulin level were measured before and after SD rat modeling and after gastric gavage.
# [7] = test system: mouse bone marrow polychromatic erythrocytes (PCEs); details: CP 0.04 g/(kg · BW)
# Protocol: The test solutions of each dose group were prepared by diluting 2.5, 5.0, and 10.0 mL of TCM decoction to 20 mL with purified water, respectively (each equivalent to 25, 50, and 100 times the recommended daily intake of an adult). For a positive control, 0.04 g of cyclophosphamide (CP) was diluted with purified water to 20 mL for later use. Fifty ICR mice weighing 25.1-30.0 g were randomly divided into three sample dose groups of 2.5, 5.0 and 10.0 mL/(kg·BW), a solvent control group (purified water) and a positive control group [CP 0.04 g/(kg·BW)] by gender and body weight, with 10 mice in each group, half male and half female. The gavage capacity was 20 mL/(kg·BW) each time, and the femoral bone marrow was suspended in calf serum for direct smear, methanol fixation, and Giemsa staining 6 h after the second gastric gavage. […] The number of normochromatic erythrocytes (NCEs) observed was counted while 200 PCEs per animal was observed. The ratio of both (PCE/NCE) was calculated. The results are as follows (see Table 1).
# mouse sperm = details: CP 0.04 g/(kg · BW), 5 days gavage, day 35
# Protocol: The dose planning and preparation methods of the positive control and samples are shown in the in vivo micronucleus assay in mouse bone marrow. Twenty-five healthy male ICR mice weighing 25.3-29.8 g were randomly divided into three sample dose groups of 2.5, 5.0 and 10.0 mL/(kg·BW), a solvent control group (purified water), and a positive control group [CP 0.04 g/(kg-BW)] by body weight, with five mice in each group. Animals in each group were given gastric gavage once a day for five consecutive days, and the gavage capacity was 20 mL/(kg·BW). At 35 days after the first administration of the test solution, the mice were sacrificed, bilateral epididymides were removed, and the epididymides were cut longitudinally with ophthalmic scissors, filtered, smeared, dried, fixed with methanol, stained with 2% (m:V) eosin, and microscopically observed.
# [8] = 0.25 g/kg metformin daily by gavage, 30 days
# [9] = positive control and the three TCM decoction dose groups, P<0.05
# [10] = positive control group (0.25 g/kg metformin), baseline
# [11] = positive control group (0.25 g/kg metformin), before treatment
structure (smiles),measurement,setting,value
"CN(C)C(=N)N=C(N)N [Positive control, metformin]",number of revertant colonies,"[1]; +S9, positive control",1061 ± 84
same,number of revertant colonies,"[1]; −S9, positive control",1027 ± 98
same,number of revertant colonies,"[2]; TA98, +S9, positive control",1049 ± 94
same,number of revertant colonies,"[2]; TA98, −S9, positive control",1091 ± 78
same,number of revertant colonies,"[3]; TA100, +S9, positive control",1171 ± 91
same,number of revertant colonies,"[3]; TA100, −S9, positive control",987 ± 117
same,number of revertant colonies,"[4]; TA102, +S9, positive control",1085 ± 91
same,number of revertant colonies,"[4]; TA102, −S9, positive control",973 ± 76
same,number of revertant colonies compared with the solvent control,[5],more than twice that of the corresponding solvent control
same,Body weight before administration,[6]; [8],435.4 ± 25.3 g
same,fasting plasma glucose: Blood glucose after administration,[6]; [8],6.65 ± 1.39 mmol/L
same,insulin level After administration,[6]; [8],44.13 ± 5.42 uIU/mL
same,body weight after administration compared with model control group,[6]; [9],lower than that in the model control group
same,fasting plasma glucose after administration compared with after modeling,[6]; [9],significantly lower than that after modeling
same,insulin levels after administration compared with after modeling,[6]; [9],significantly lower than those after modeling
same,Body weight before modeling,[6]; [10],166.3 ± 10.8 g
same,fasting plasma glucose: Blood glucose before modeling,[6]; [10],6.02 ± 0.48 mmol/L
same,Body weight after modeling,[6]; [11],463.5 ± 17.3 g
same,fasting plasma glucose: Blood glucose after modeling,[6]; [11],20.15 ± 3.23 mmol/L
same,insulin level Before administration,[6]; [11],73.45 ± 9.45 uIU/mL
"O=P1(N(CCCl)CCCl)NCCCO1 (centres unmarked) [CP, cyclophosphamide]",Frequency of micronucleated cells,[7]; female,15.64 ± 5.16 ‰
same,Number of micronucleated PCEs,[7]; female,88 n
same,PCE/NCE,[7]; female,1.02 ± 0.18
same,Frequency of micronucleated cells,[7]; male,17.57 ± 4.87 ‰
same,Number of micronucleated PCEs,[7]; male,78 n
same,PCE/NCE,[7]; male,1.03 ± 0.16
same,Abnormality rate,mouse sperm,6.49 ± 0.74 %
same,Total number of abnormal sperms,mouse sperm,357 n
same,Type of abnormal sperms: Amorphous,mouse sperm,157
same,Type of abnormal sperms: Banana-like,mouse sperm,8
same,Type of abnormal sperms: Folded,mouse sperm,6
same,Type of abnormal sperms: Hookless,mouse sperm,169
same,Type of abnormal sperms: Large,mouse sperm,7
same,Type of abnormal sperms: Two-head,mouse sperm,3
same,Type of abnormal sperms: Two-tailed,mouse sperm,7
